Tested on: Humane Glykogenphosphorylase a
Assay: Glycogen phosphorylase a activity test (reverse direction, release of inorganic phosphate from glucose-1-phosphate)
Format: biochemical
Settings: 10 µM test substance; in vitro; 40 min at room temperature; absorbance at 820 nm; duplicate determinations
Method: Glykogenphosphorylase a Aktivitätstest
Der Effekt von Verbindungen auf die Aktivität der aktiven Form der Glykogenphosphorylase (GPa) wurde in der umgekehrten Richtung, durch Verfolgen der Glykogensynthese aus Glukose-1-Phosphat an Hand der Bestimmung der Freisetzung von anorganischem Phosphat, gemessen. […] Prüfsubstanzen wurden als 10 mM Lösung in DMSO zubereitet und auf 50 µM mit Pufferlösung T verdünnt. Zu 10 µl dieser Lösung wurden 10 µl 37,5 mM Glukose, gelöst in Pufferlösung T und 5 mg/mL Glykogen, sowie 10 µl einer Lösung von humaner Glykogenphosphorylase a (10 µg Protein/ml) und 20 µl Glukose-1-Phosphat, 2,5 mM zugegeben. Der basale Wert der Glykogenphosphorylase a Aktivität in Abwesenheit von Prüfsubstanz wurde durch Zugabe von 10 µl Pufferlösung T (0,1 % DMSO) bestimmt. […] Zur Bestimmung der Hintergrundsabsorption wurde in einem separaten Ansatz die Stop-Lösung unmittelbar nach Zugabe der Glukose-1-Phosphatlösung zugegeben. Dieser Test wurde mit einer Konzentrationen von 10 µM der Prüfsubstanz durchgeführt, um die jeweilige Hemmung der Glykogenphosphorylase a in vitro durch die Prüfsubstanz zu bestimmen. Tabelle 2: Biologische Aktivität

Row | % Inhibition bei 10 µM [%] | SMILES
1 | 101 | O=C(O)/C=C/c1ccccc1NC(=O)NC(=O)c1cc(F)c(F)cc1Cl [compound 2, 3-{2-[3-(2-Chloro-4,5-difluorobenzoyl)-ureido]-phenyl}-acrylsäure]
2 | 104 | COC(=O)C=Cc1cc(C(=O)O)ccc1NC(=O)NC(=O)c1cc(F)c(F)cc1Cl [compound 12, 4-[3-(2-Chloro-4,5-difluorobenzoyl)-ureido]-3-(2-methoxycarbonyl-vinyl)-benzoesäure]

Source: patent EP1513800B1, “N-BENZOYLUREIDOCINNAMATE DERIVATIVES, METHOD FOR PRODUCTION AND USE THEREOF” (Sanofi-Aventis Deutschland GmbH, priority 2002, dated 2003)
